These results are taken from patent publication US9663496B2, “AMPK-activating heterocyclic compounds and methods for using the same” (Rigel Pharmaceuticals, Inc., priority 2010, dated 2017).

This assay concerns the target AMPK. Kind of assay: AMPK activation, enzyme-linked immunosorbent assay. It is filed as biochemical. Particulars: EC50 for AMPK activation, ELISA. In a few lines:
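Read-out: immunodetected kinase activation after compound exposure, run with commercial kit reagents.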
(In general: An ELISA detects its analyte on a solid surface through an enzyme-linked reagent.)
As a reminder, the EC50 is the midpoint of the concentration-response curve. Regarding `O=C(NC1CCN(Cc2ccc(N3CCCC3)cc2)CC1)c1ccc(C(=O)N2CCC(Oc3ccc(F)cc3)CC2)cn1` [Compound 196, 5-(4-(4-fluorophenoxy)piperidine-1-carbonyl)-N-(1-(4-(pyrrolidin-1-yl)benzyl)piperidin-4-yl)picolinamide], the EC50 is under 500 nM.

Turning to `CC(=O)c1ccc(Oc2ccc(NC(=O)c3ccc(C(=O)N4CCN(Cc5ccc(F)cc5)CC4)nc3)cn2)cc1` [Compound 477, N-(6-(4-acetylphenoxy)pyridin-3-yl)-6-(4-(4-fluorobenzyl)piperazine-1-carbonyl)nicotinamide], the concentration giving a half-maximal response (EC50) was under 500 nM. Regarding `N#Cc1ccc(OC2CCN(C(=O)c3ccc(C(=O)Nc4ccc(Oc5ccc(F)cc5)nc4)cn3)CC2)cc1` [Compound 326, 6-(4-(4-cyanophenoxy)piperidine-1-carbonyl)-N-(6-(4-fluorophenoxy)pyridin-3-yl)nicotinamide], the EC50 was under 500 nM. Compound `O=C(NC1CCN(Cc2cc(F)cc(F)c2)CC1)c1ccc(C(=O)N2CCC(C(=O)c3ccc(F)cc3)CC2)cn1` [Compound 288, N-(1-(3,5-difluorobenzyl)piperidin-4-yl)-5-(4-(4-fluorobenzoyl)piperidine-1-carbonyl)picolinamide] had an EC50 of under 500 nM. The same measure for `COc1ccc(N2CCC(NC(=O)c3ccc(C(=O)N4CCN(Cc5ccc(F)cc5)CC4)nc3)CC2)cc1` [Compound 405, 6-(4-(4-fluorobenzyl)piperazine-1-carbonyl)-N-(1-(4-methoxyphenyl)piperidin-4-yl)nicotinamide]: under 500 nM; for `N#Cc1ccc(CN2CCC(NC(=O)c3ccc(C(=O)N4CCC(C(=O)c5ccc(C#N)cc5)CC4)cn3)CC2)cc1` [Compound 369, 5-(4-(4-cyanobenzoyl)piperidine-1-carbonyl)-N-(1-(4-cyanobenzyl)piperidin-4-yl)picolinamide]: under 500 nM. In the case of `N#Cc1ccc(CN2CCC(NC(=O)c3ccc(N4CCC(Oc5ccc(C(F)(F)F)cc5)CC4)cn3)CC2)cc1` [Compound 301, N-(1-(4-cyanobenzyl)piperidin-4-yl)-5-(4-(4-(trifluoromethyl)phenoxy)piperidin-1-yl)picolinamide] it was under 500 nM; in that of `CC(=O)c1ccc(Oc2ccc(NC(=O)c3ccc(C(=O)N4CCC(Oc5ccc(C(=O)N(C)C)cc5)CC4)nc3)cn2)cc1` [Compound 488, N-(6-(4-acetylphenoxy)pyridin-3-yl)-6-(4-(4-(dimethylcarbamoyl)phenoxy)piperidine-1-carbonyl)nicotinamide], under 500 nM. In the case of `COc1ccc(OC2CCN(C(=O)c3ccc(C(=O)NC4CCN(Cc5ccc(C#N)cc5)CC4)cn3)CC2)c(N(C)C)c1` [Compound 385, N-(1-(4-cyanobenzyl)piperidin-4-yl)-6-(4-(2-(dimethylamino)-4-methoxyphenoxy)piperidine-1-carbonyl)nicotinamide] it was over 10000 nM; in that of `N#Cc1ccc(CN2CCC(NC(=O)c3ccc(C(=O)N4CC[C@@H](Oc5ccc(F)cc5)C4)cn3)CC2)cc1` [Compound 278, (R)—N-(1-(4-cyanobenzyl)piperidin-4-yl)-5-(3-(4-fluorophenoxy)pyrrolidine-1-carbonyl)picolinamide], under 500 nM.

Compound `O=C(Nc1ccc(Oc2ccc(F)cc2)nc1)c1ccc(C(=O)N2CCC(C(=O)c3ccc(N4CCCC4)cc3)CC2)nc1` [Compound 382, N-(6-(4-fluorophenoxy)pyridin-3-yl)-6-(4-(4-(pyrrolidin-1-yl)benzoyl)piperidine-1-carbonyl)nicotinamide] displayed an EC50 of under 500 nM. The same measure for `CCOC(=O)C(c1ccccc1)N1CCC(NC(=O)c2ccc(C(=O)N3CCN(Cc4ccc(F)cc4)CC3)cn2)CC1` (stereo not shown) [Compound 98, ethyl 2-(4-(5-(4-(4-fluorobenzyl)piperazine-1-carbonyl)picolinamido)piperidin-1-yl)-2-phenylacetate]: 1000 to 5000 nM; for `O=C(c1ccc(Nc2ccc(-c3ccccc3)cc2)nc1)N1CCN(Cc2ccc(F)cc2)CC1` [Compound 37, (6-(4-phenylphenylamino)pyridin-3-yl)(4-(4-fluorobenzyl)piperazin-1-yl)methanone]: 5000 to 10000 nM; for `COc1ccc(CN2CCC(NC(=O)c3ccc(C(=O)N4CCC(C(=O)c5ccc(S(C)(=O)=O)cc5)CC4)cn3)CC2)cc1` [Compound 234, N-(1-(4-methoxybenzyl)piperidin-4-yl)-5-(4-(4-(methylsulfonyl)benzoyl)piperidine-1-carbonyl)picolinamide]: under 500 nM. In the case of `CN1CCN(c2ccc(C(=O)C3CCN(C(=O)c4ccc(C(=O)NC5CCN(Cc6ccc(OC(F)(F)F)cc6)CC5)cn4)CC3)cc2)CC1` [Compound 244, 6-(4-(4-(4-methylpiperazin-1-yl)benzoyl)piperidine-1-carbonyl)-N-(1-(4-(trifluoromethoxy)benzyl)piperidin-4-yl)nicotinamide] it was 5000 to 10000 nM; in that of `COc1ccc(S(=O)(=O)N2CCN(C(=O)c3ccc(C(=O)NC4CCN(Cc5ccc(C#N)cc5)CC4)nc3)CC2)cc1` [Compound 79, N-(1-(4-cyanobenzyl)piperidin-4-yl)-5-(4-(4-methoxyphenylsulfonyl)piperazine-1-carbonyl)picolinamide], 500 to 1000 nM.

Take `N#Cc1ccc(CN2CCC(NC(=O)c3ccc(C(=O)N4CCC(S(=O)(=O)c5ccc(F)cc5)CC4)cn3)CC2)cc1` [Compound 262, N-(1-(4-cyanobenzyl)piperidin-4-yl)-5-(4-(4-fluorophenylsulfonyl)piperidine-1-carbonyl)picolinamide]: the EC50 is under 500 nM. In the case of `N#Cc1ccc(Oc2ccc(NC(=O)c3ccc(C(=O)N4CCN(Cc5ccc(F)cc5)CC4)nc3)cn2)cc1` [Compound 476, N-(6-(4-cyanophenoxy)pyridin-3-yl)-6-(4-(4-fluorobenzyl)piperazine-1-carbonyl)nicotinamide] it was under 500 nM; in that of `N#Cc1ccc(CN2CCC(NC(=O)c3ccc(C(=O)N4CCC(Oc5ccc(F)cc5F)CC4)cn3)CC2)cc1` [Compound 282, N-(1-(4-cyanobenzyl)piperidin-4-yl)-5-(4-(2,4-difluorophenoxy)piperidine-1-carbonyl)picolinamide], under 500 nM. In the case of `CC(=O)Nc1ccc(OC2CCN(C(=O)c3ccc(C(=O)Nc4ccc(Oc5ccc(F)cc5)nc4)nc3)CC2)cc1` [Compound 408, 5-(4-(4-acetamidophenoxy)piperidine-1-carbonyl)-N-(6-(4-fluorophenoxy)pyridin-3-yl)picolinamide], the EC50 was under 500 nM. The same measure for `N#Cc1ccc(O[C@H]2CC[C@@H](NC(=O)c3ccc(C(=O)N4CCC(C(=O)c5ccc(F)cc5)CC4)cn3)CC2)cc1` [Compound 151]: under 500 nM; for `CS(=O)(=O)c1ccc(Oc2ccc(NC(=O)c3ccc(C(=O)N4CCC(C(=O)c5ccc(F)cc5F)CC4)nc3)cn2)cc1` [Compound 466, 6-(4-(2,4-difluorobenzoyl)piperidine-1-carbonyl)-N-(6-(4-(methylsulfonyl)phenoxy)pyridin-3-yl)nicotinamide]: under 500 nM.
